Measured values as given in ChEMBL document CHEMBL4680259, “Discovery of bazedoxifene analogues targeting glycoprotein 130” (Eur J Med Chem, 2020).
pKd: −log10 of the molar value. Active and inactive are the calls of the source. The rule behind the calls is not given here.

What was measured:
[1] = tested on: A549; assay: Induction of apoptosis in human A549 cells assessed as late apoptotic cells at 6 uM incubated for 24 hrs by annexin V-FITC and propidium iodide staining based flow cytometry analysis (reference value: 1.4 %); assay type: functional
[2] = Bioavilability in rat at 5 mg/kg, ig; assay type: ADME, organism-based; conditions: in vivo, po
[3] = tested on: A549; assay: Induction of apoptosis in human A549 cells assessed as increase in cleaved caspase-3 level at 3 to 9 uM incubated for 24 hrs by Western blot analysis; assay type: functional, cell-based; conditions: dose 3-9 µM
[4] = tested on: A549; assay: Induction of ROS generation in human A549 cells assessed as fold increase in ROS level at 6 uM after 24 hrs by DCFH-DA staining based flow cytometric analysis relative to control; assay type: functional
[5] = tested on: A549; assay: Induction of ROS generation in human A549 cells assessed as fold increase in ROS level at 3 uM after 24 hrs by DCFH-DA staining based flow cytometric analysis relative to control; assay type: functional
[6] = tested on: A549; assay: Induction of apoptosis in human A549 cells assessed as late apoptotic cells at 9 uM incubated for 24 hrs by annexin V-FITC and propidium iodide staining based flow cytometry analysis (reference value: 1.4 %); assay type: functional
[7] = tested on: A549; assay: Induction of apoptosis in human A549 cells assessed as viable cells at 9 uM incubated for 24 hrs by annexin V-FITC and propidium iodide staining based flow cytometry analysis (reference value: 97.7 %); assay type: functional; conditions: read-out: Activity
[8] = target: T1, Interleukin-6 receptor subunit beta (Homo sapiens) (UniProt P40189); assay: Inhibition of GP130 in human A549 cells assessed as decrease in JAK2 phosphorylation at 3 to 9 uM incubated for 24 hrs by western blot analysis; assay type: cell-based; conditions: dose 3-9 µM
T1 sequence (whole entry): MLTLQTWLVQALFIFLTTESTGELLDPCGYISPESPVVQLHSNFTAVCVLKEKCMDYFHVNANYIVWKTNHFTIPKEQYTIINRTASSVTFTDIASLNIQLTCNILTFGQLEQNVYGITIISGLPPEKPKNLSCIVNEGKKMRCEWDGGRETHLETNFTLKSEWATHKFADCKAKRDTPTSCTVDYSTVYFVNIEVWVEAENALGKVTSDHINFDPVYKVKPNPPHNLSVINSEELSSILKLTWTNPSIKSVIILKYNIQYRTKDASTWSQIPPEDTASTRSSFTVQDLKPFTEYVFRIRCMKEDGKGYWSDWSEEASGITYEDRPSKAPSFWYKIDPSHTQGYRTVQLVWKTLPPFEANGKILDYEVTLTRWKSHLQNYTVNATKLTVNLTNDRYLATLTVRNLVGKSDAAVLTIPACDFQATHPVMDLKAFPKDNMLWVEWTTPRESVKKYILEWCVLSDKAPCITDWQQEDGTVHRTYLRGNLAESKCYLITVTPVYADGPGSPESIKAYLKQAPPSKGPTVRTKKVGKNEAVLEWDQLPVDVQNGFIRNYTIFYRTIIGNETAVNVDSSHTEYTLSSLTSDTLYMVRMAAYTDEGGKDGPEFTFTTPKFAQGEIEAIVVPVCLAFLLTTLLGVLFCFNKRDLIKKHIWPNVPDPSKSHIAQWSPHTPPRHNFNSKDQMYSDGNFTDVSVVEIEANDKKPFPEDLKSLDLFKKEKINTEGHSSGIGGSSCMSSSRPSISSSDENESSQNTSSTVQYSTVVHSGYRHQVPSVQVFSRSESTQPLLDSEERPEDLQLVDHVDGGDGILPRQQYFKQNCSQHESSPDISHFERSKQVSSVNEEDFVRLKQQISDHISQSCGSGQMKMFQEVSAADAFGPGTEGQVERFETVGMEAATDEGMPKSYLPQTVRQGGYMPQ

[9] = Clearance in rat at 0.5 mg/kg, iv; assay type: ADME, organism-based; conditions: in vivo
[10] = Acute toxicity in ICR mouse assessed as mortality at 120 mg/kg measured after 2 weeks; assay type: organism-based; conditions: in vivo, 336 h
[11] = target: T1, Interleukin-6 receptor subunit beta (Homo sapiens); assay: Inhibition of GP130 in human A549 cells assessed as reduction in survivin protein expression after 24 hrs by Western blot analysis; assay type: cell-based; conditions: dose 3-9 µM
[12] = tested on: A549; assay: Induction of apoptosis in human A549 cells assessed as early apoptotic cells at 6 uM incubated for 24 hrs by annexin V-FITC and propidium iodide staining based flow cytometry analysis (reference value: 0.5 %); assay type: functional
[13] = target: T1, Interleukin-6 receptor subunit beta (Homo sapiens); assay: Inhibition of GP130 in human A549 cells assessed as reduction in STAT3 dimer DNA binding activity in nuclear extract in presence of hSIE probe at 3 to 9 uM after 24 hrs by EMSA analysis; assay type: subcellular; conditions: Nucleus, dose 3-9 µM
[14] = target: T2, Estrogen receptor (Homo sapiens, UniProt P03372); assay: Binding affinity to ERalpha (unknown origin) by SPR assay
T2 sequence (P03372 whole entry): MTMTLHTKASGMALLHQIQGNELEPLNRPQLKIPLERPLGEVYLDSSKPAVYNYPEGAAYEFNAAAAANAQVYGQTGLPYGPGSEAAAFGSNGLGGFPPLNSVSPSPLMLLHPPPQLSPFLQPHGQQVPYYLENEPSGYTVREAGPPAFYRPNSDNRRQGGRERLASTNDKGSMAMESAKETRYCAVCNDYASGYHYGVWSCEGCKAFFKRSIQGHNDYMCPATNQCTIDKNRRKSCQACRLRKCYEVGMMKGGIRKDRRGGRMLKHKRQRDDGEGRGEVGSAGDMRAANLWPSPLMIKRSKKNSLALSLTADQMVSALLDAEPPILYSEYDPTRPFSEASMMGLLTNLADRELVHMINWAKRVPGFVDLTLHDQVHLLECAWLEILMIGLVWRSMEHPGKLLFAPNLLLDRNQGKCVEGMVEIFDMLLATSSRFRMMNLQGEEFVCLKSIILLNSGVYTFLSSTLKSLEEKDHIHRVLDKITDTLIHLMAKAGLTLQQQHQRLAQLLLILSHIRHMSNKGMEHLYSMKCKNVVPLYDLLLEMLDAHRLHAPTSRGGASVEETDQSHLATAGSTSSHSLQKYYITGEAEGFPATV

[15] = AUC (0 to t) in rat at 0.5 mg/kg, iv; assay type: ADME, organism-based; parameters: dose 0.5 mg/kg; conditions: in vivo
[16] = target: T1, Interleukin-6 receptor subunit beta (Homo sapiens); assay: Binding affinity to GP130 in human A549 cell lysates assessed as decrease in pronase mediated protein degradation by measuring increase in abundance of GP130 band at 100 to 1000 uM preincubated for 1 hr followed by pronase addition for 30 mins by DARTS assay; assay type: subcellular; conditions: dose 100-1000 µM, time 90.0 min
[17] = target: T1, Interleukin-6 receptor subunit beta (Homo sapiens); assay: Inhibition of GP130 in human A549 cells assessed as reduction in cyclin-D1 protein expression after 24 hrs by Western blot analysis; assay type: cell-based; conditions: dose 3-9 µM
[18] = Mean residence time in rat at 0.5 mg/kg, iv; assay type: ADME, organism-based; conditions: in vivo
[19] = Mean residence time in rat at 5 mg/kg, ig; assay type: ADME, organism-based; conditions: in vivo, po
[20] = tested on: A549; assay: Induction of apoptosis in human A549 cells assessed as increase in cleaved caspase-7 level at 3 to 9 uM incubated for 24 hrs by Western blot analysis; assay type: functional, cell-based; conditions: dose 3-9 µM
[21] = tested on: A549; assay: Antitumor activity against human A549 cells xenografted in nude mouse assessed as decrease in tumor weight at 20 mg/kg, ip administered daily for 21 days and measured every 2 to 3 days; assay type: functional; conditions: 504 h, time 21 day

With `NC(=O)N1N=C(c2ccc(C(F)(F)F)cc2)CC1c1cn(Cc2ccc(OCCN3CCCCCC3)cc2)c2ccc(Br)cc12` (stereo unspecified) the Activity [1] was 4.9%, the bioavailability [2] was 5.6% and the Activity [3] was “Active”. The “fold change (FC)” value [4] was 4.09, the “fold change (FC)” value [5] was 1.93 and the Activity [6] was 33%. For the same compound, the viability at 9 µM [7] was 60.6%, the Activity [8] was “Active” and the clearance [9] was 14.5 mL/min/kg. The Activity [10] was “Non-Toxic”, the inhibition [11] was “Dose-dependent effect” and the Activity [12] was 1.7%. For the same compound, the inhibition [13] was “Active”, the pKd [14] was 4.33 and the AUC(0-t) [15] was 468 ng·h/mL. The Activity [16] was “Active”, the inhibition [17] was “Dose-dependent effect” and the MRT [18] was 13.7 h. The MRT [19] was 11.6 h, the Activity [20] was “Active” and the inhibition in vivo at 20 mg/kg [21] was 59%.
